The target of one data set is T1, B2 bradykinin receptor (Homo sapiens, UniProt P30411). Note: in other assays of this panel Not Active means under 50% inhibition at 10 µM.
T1 sequence (P30411 whole entry): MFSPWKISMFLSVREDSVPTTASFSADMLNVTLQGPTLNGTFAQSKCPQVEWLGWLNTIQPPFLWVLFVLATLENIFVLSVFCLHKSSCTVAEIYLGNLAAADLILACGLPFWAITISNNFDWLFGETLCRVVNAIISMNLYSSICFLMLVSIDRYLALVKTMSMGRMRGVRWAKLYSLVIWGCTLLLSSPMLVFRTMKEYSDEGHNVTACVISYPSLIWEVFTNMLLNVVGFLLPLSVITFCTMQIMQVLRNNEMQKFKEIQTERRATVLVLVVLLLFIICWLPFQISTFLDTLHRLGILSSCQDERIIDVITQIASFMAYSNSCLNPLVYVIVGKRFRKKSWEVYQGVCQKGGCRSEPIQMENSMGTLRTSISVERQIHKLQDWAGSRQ
Type of data set: cell membranes, Membrane. The conditions noted are these: chem-1.

Data set [1] deals with Vascular endothelial growth factor receptor 1 (Homo sapiens, UniProt P17948). The data set can be described thus: biochemical. Type of data set: cell-based, HUVEC.
Chain of Vascular endothelial growth factor receptor 1 (P17948 whole entry): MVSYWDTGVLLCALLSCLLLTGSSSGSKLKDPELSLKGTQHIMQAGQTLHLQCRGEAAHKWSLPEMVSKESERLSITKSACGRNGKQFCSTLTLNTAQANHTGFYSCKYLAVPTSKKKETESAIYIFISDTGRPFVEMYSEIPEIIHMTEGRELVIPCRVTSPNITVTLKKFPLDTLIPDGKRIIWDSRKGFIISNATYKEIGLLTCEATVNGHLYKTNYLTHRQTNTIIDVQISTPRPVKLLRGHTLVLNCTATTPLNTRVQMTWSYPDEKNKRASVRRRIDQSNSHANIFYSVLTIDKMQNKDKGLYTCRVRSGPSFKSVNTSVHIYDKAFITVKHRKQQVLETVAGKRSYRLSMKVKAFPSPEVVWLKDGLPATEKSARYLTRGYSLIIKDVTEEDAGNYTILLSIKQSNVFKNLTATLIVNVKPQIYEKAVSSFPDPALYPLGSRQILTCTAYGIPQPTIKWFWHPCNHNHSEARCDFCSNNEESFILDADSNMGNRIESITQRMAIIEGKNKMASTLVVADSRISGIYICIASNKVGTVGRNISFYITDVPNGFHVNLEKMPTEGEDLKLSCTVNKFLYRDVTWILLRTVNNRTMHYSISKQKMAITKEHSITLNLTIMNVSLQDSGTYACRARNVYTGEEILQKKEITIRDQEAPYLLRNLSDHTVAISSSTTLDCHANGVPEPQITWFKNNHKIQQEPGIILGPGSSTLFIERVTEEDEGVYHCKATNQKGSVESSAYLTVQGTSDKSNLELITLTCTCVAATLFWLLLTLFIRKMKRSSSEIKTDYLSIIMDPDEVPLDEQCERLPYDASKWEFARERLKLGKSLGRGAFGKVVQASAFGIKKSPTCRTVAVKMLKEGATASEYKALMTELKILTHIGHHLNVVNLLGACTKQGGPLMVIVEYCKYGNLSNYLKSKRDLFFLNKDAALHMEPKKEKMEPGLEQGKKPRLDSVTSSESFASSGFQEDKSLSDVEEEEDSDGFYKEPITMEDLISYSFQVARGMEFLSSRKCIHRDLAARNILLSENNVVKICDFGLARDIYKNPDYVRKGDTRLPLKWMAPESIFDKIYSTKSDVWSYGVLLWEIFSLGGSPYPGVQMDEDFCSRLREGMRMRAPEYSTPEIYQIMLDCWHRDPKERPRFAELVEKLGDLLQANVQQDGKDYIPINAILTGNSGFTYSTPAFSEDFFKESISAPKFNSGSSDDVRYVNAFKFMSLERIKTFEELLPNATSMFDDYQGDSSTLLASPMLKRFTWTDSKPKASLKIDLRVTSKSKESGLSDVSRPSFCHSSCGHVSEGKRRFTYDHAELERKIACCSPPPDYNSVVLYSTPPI
The nature of data set [2]: DRUGMATRIX: Serotonin (5-Hydroxytryptamine) 5-HT3 radioligand binding (ligand: [3H] GR-65630). The note with it: hek293; Not Active = under 50% inhibition at 10 µM. Type of data set: cell membranes, Membrane.
Data set [3] can be described thus: DRUGMATRIX: Purinergic P2X radioligand binding (ligand: [3H] alpha, beta-Methylene-ATP). Type of data set: cell membranes, Oryctolagus cuniculus, New Zealand albino, Urinary bladder, Membrane. The note with it: Not Active = under 50% inhibition at 10 µM.
Data set [4] addresses Aldo-keto reductase family 1 member B1 (Rattus norvegicus, UniProt P07943). Type of data set: tissue-based, Lens of camera-type eye.
Another data set has as its target Cytochrome P450 2C19 (Homo sapiens, UniProt P33261). The note with it: bti-tn-5b1-4. Note: in other assays of this panel Not Active means under 50% inhibition at 10 µM.
The nature of data set [5]: DRUGMATRIX: Sigma2 radioligand binding (ligand: [3H] Ifenprodil). Type of data set: cell membranes, Rattus norvegicus, Wistar, Brain, Membrane. The conditions noted are these: Not Active = under 50% inhibition at 10 µM.

As usually defined, the IC50 is the concentration needed to halve the response being measured. For orientation: Ki means a measure of affinity in units of concentration, obtained from inhibition or displacement.

Chain of Cytochrome P450 2C19 (P33261 whole entry): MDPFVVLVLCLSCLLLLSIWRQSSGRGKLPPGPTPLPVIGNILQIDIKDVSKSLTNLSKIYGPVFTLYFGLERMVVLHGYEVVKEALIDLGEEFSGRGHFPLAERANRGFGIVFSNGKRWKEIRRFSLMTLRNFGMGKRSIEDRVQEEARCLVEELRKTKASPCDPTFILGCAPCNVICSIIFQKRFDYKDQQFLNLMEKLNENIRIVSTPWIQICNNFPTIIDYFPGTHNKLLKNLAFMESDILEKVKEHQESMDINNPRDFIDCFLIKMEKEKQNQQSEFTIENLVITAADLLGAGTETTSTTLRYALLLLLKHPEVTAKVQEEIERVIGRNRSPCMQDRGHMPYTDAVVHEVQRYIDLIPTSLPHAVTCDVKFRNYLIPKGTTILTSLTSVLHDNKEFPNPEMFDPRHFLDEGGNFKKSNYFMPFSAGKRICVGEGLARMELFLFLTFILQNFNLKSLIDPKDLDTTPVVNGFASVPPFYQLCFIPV

For `C[n+]1ccc(-c2cc[n+](C)cc2)cc1.[Cl-].[Cl-]` [PARAQUAT DICHLORIDE], the IC50 entry (at B2 bradykinin receptor; in data set [1] (huvec); in data set [2]; in data set [3]; in data set [4]; at Cytochrome P450 2C19) was “Not Active” each time. In data set [5], the IC50 result is on record as “Not Active”. For the same compound, the Ki entry (in data set [2]; in data set [3]; on Cytochrome P450 2C19; in data set [5]) was “Not Active” throughout.
As for `Cc1cc2c(OCC(CNC(C)(C)C)OC(=O)c3ccccc3)cccc2[nH]1` (stereo not drawn) [BOPINDOLOL], the IC50 result (at B2 bradykinin receptor; in data set [1] (huvec); in data set [2]; in data set [3]; in data set [4]; at Cytochrome P450 2C19) was “Not Active” each time. For the same compound, in data set [5], the IC50 result is recorded as “Not Active”. The inhibitory constant (Ki) entry (in data set [2]; in data set [3]; at Cytochrome P450 2C19; in data set [5]) was “Not Active” throughout.
On to `Nc1ccn([C@@H]2O[C@H](CO)[C@@H](O)C2(F)F)c(=O)n1` [GEMCITABINE], for which the IC50 result (on B2 bradykinin receptor; in data set [1] (huvec); in data set [2]; in data set [3]; in data set [4]; on Cytochrome P450 2C19) was “Not Active” in each case. In data set [5], the IC50 result was “Not Active”. In addition, the inhibition constant (Ki) result (in data set [2]; in data set [3]; at Cytochrome P450 2C19; in data set [5]) was “Not Active” throughout.
As for GADOPENTETATE DIMEGLUMINE, the IC50 result (at B2 bradykinin receptor; in data set [1] (huvec); in data set [2]; in data set [3]; in data set [4]; against Cytochrome P450 2C19) was “Not Active” each time. The concentration for half-maximal inhibition (IC50) entry in data set [5] is “Not Active”. Further, the Ki result (at B2 bradykinin receptor; in data set [1] (huvec); in data set [2]; in data set [3]; in data set [4]; on Cytochrome P450 2C19) was “Not Active” each time. Further, in data set [5], the Ki entry is listed as “Not Active”.
With `C=CCc1ccc(O)c(OC)c1` [EUGENOL], the half-maximal inhibitory concentration (IC50) entry (at B2 bradykinin receptor; in data set [1] (huvec); in data set [2]; in data set [3]; in data set [4]; against Cytochrome P450 2C19) was “Not Active” in each case. Also, the half-maximal inhibitory concentration (IC50) entry in data set [5] is listed as “Not Active”. The Ki result (in data set [2]; in data set [3]; on Cytochrome P450 2C19; in data set [5]) was “Not Active” throughout.
Consider `CCn1cc(C(=O)O)c(=O)c2cnc(N3CCCC3)nc21` [PIROMIDIC ACID], for which the IC50 result (on B2 bradykinin receptor; in data set [1] (huvec); in data set [2]; in data set [3]; in data set [4]; against Cytochrome P450 2C19) was “Not Active” throughout. For the same compound, the IC50 entry in data set [5] is “Not Active”. Also, the Ki entry (in data set [2]; in data set [3]; on Cytochrome P450 2C19; in data set [5]) was “Not Active” each time.
On to `COC(=O)Nc1nc2ccc(C(=O)c3cccs3)cc2[nH]1` [NOCODAZOLE], for which the IC50 result (at B2 bradykinin receptor; in data set [1] (huvec); in data set [2]; in data set [3]; in data set [4]; at Cytochrome P450 2C19) was “Not Active” each time. In addition, in data set [5], the IC50 result was “Not Active”. For the same compound, the Ki result (in data set [2]; in data set [3]; at Cytochrome P450 2C19; in data set [5]) was “Not Active” in each case.
For the compound AURANOFIN, the IC50 result (on B2 bradykinin receptor; in data set [1] (huvec); in data set [2]; in data set [3]; in data set [4]; against Cytochrome P450 2C19) was “Not Active” each time. For the same compound, the IC50 result in data set [5] is listed as “Not Active”. Moreover, the Ki entry (at B2 bradykinin receptor; in data set [1] (huvec); in data set [2]; in data set [3]; in data set [4]; on Cytochrome P450 2C19) was “Not Active” in each case. Further, the Ki result in data set [5] is recorded as “Not Active”.
`Cc1nnc2n1-c1ccc(Cl)cc1C(c1ccccc1)=NC2` [ALPRAZOLAM]: the concentration for half-maximal inhibition (IC50) entry (on B2 bradykinin receptor; in data set [1] (huvec); in data set [2]; in data set [3]; in data set [4]; against Cytochrome P450 2C19) was “Not Active” throughout. The IC50 entry in data set [5] is given as “Not Active”. Further, the Ki entry (in data set [2]; in data set [3]; on Cytochrome P450 2C19; in data set [5]) was “Not Active” throughout.
In the case of `CC(=O)[C@H]1[C@H](C#N)C[C@H]2[C@@H]3CC=C4C[C@@H](O)CC[C@]4(C)[C@H]3CC[C@@]21C` [PREGNENOLONE CARBONITRILE], the half-maximal inhibitory concentration (IC50) result (against B2 bradykinin receptor; in data set [1] (huvec); in data set [2]; in data set [3]; in data set [4]; on Cytochrome P450 2C19) was “Not Active” in each case. In addition, the IC50 entry in data set [5] is “Not Active”. The Ki result (in data set [2]; in data set [3]; at Cytochrome P450 2C19; in data set [5]) was “Not Active” throughout.
For the compound `C[C@@H]1CC[C@@]2(OC1)O[C@H]1[C@@H](O)[C@H]3[C@@H]4CC[C@H]5C[C@@H](O[C@@H]6O[C@H](CO)[C@H](O[C@@H]7O[C@H](CO)C(O)[C@H](O[C@@H]8OC[C@@H](O)[C@H](O)[C@H]8O)[C@H]7O[C@@H]7O[C@H](CO)[C@H](O)[C@H](O[C@@H]8O[C@H](CO)[C@@H](O)[C@H](O)[C@H]8O)[C@H]7O)[C@H](O)[C@H]6O)[C@H](O)C[C@]5(C)[C@H]4CC[C@]3(C)[C@H]1[C@@H]2C` (stereo partly drawn) [DIGITONIN], the IC50 entry against B2 bradykinin receptor is “Not Active”; in data set [1] (read-out: IC50), 3.86 µM; in data set [2] it was “Not Active”; in data set [3] it was “Not Active”; in data set [4], “Not Active”; against Cytochrome P450 2C19, “Not Active”. Also, the IC50 result in data set [5] is on record as “Not Active”. Further, the inhibition constant Ki in data set [1] (read-out: Ki) is 1 µM; in data set [2], “Not Active”; in data set [3], “Not Active”; on Cytochrome P450 2C19, “Not Active”; in data set [5], “Not Active”.
